Data set [1] has as its system Staphylococcus aureus ATCC 43300, MRSA. It is filed as cell-based. The note with it: ATCC 43300, 18 h. On the procedure: The antibacterial activity of inventive compounds was evaluated in duplicate in a further Minimum Inhibitory Concentration (MIC) assay.
Bacteria were cultured in Cation-adjusted Mueller Hinton broth (CAMHB) at 37° C. overnight. A sample of each culture was then diluted 40-fold in fresh broth and incubated at 37° C. for 1.5-3 h. The resultant mid-log phase cultures were diluted (CFU/mL measured by OD600), then added to each well of the compound containing plates, giving a cell density of 5×10^5 CFU/mL and a total volume of 50 μL. All the plates were covered and incubated at 37° C. for 18 h without shaking.
Samples were prepared in DMSO and serially diluted 2 fold 8 times. Each sample concentration was prepared in 384-well plates, non-binding surface plate (NBS; Corning 3640) for the bacterial strain ATCC 43300, MRSA. The final DMSO concentration was at a maximum of 0.5%.
Inhibition of bacterial growth was determined measuring absorbance at 600 nm (OD600), using a Tecan M1000 Pro monochromator plate reader. The percentage of growth inhibition was calculated for each well, using the negative control (media only) and positive control (bacteria without inhibitors) on the same plate as references. […] Vancomycin was used as positive bacterial inhibitor standards.

In data set [2] the test system is Staphylococcus aureus ATCC BAA-1556, USA300 MRSA. Kind of data set: microbe, parasite or virus in culture. In kind it is cell-based. The note with it: ATCC BAA-1556. As for the experimental part: Pre-formulated compound solution was diluted in 100% DMSO to prepare a 1.6 mg/mL working stock solution. […] The concentration range was 0.032 to 32 μg/mL.
Data set [3] is described as follows: Cytotoxicity assay (Alamar Blue) on L6-cells. In kind it is cell-based, rat. Particulars: rat. As for the experimental part:
Tests were done in triplicate.
The plates were incubated for additional 2 h.
(In general: Alamar Blue is a resazurin reagent that responds to reducing activity.)

Data set [4] concerns axenic Leishmania donovani MHOM-ET-67/L82 amastigotes. In words: In vitro antiprotozoal assay, axenic amastigotes. Particulars: axenic amastigotes; read-out: L.don.ax. IC50. It is filed as cell-based.
Description: (§1) The testing of the inventive compounds against Leishmania donovani (strain MHOM/ET/67/L82) was performed in 96 well plates at concentrations in serial dilutions. Tests were done in triplicate.
Data set [5] relates to intracellular Leishmania donovani MHOM-ET-67/L82 amastigotes. Kind of data set: In vitro antiprotozoal assay, intracellular amastigotes. In kind it is cell-based. Particulars: intracellular amastigotes; read-out: L.don.InMac IC50.
Description: as §1

In brackets after ≈: the same amount, converted by molar mass. Numbered stars: 1 amine (or outer) side, 2 acyl side, 3 side chain; on linkers, the order of the positions; unused ones are H or OH. Square brackets hold non-standard residues; d marks the D form. Peptide text beside a SMILES is read from it. * marks the point of attachment. X13 = O=C([C@H](Cc1nc2ccc(F)cc2s1)N[*:1])[*:2]; X14 = COc1ccc(C[C@H](N[*:1])C(=O)[*:2])cc1Cl; Ala(thiazol-2-yl) = N[C@@H](Cc1nccs1)C(=O)O; NH(1-CH2NMe2-cBu) = CN(C)CC1(N*)CCC1; Gly(octyl) = CCCCCCCC[C@H](N)C(=O)O; Oxazole4CO(2-Me) = Cc1nc(C(=O)*)co1; Benzoyl(4-F) = O=C(c1ccc(F)cc1)*; hCha = N[C@@H](CCC1CCCCC1)C(=O)O; X2 = C1CCN(CC2(N*)CCC2)CC1; NHCH2CH2NHMe = CNCCN*; Aib = CC(C)(N)C(=O)O; X1 = COCCN(CCN*)CCOC; βAla = NCCC(=O)O

For the compound `Cc1nc(C(=O)N2CCCC2C(=O)N[C@@H](CCC2CCCCC2)C(=O)N[C@@H](CC(C)C)C(=O)NC(C)(C)C(=O)N[C@@H](CC(C)C)C(=O)N[C@@H](CC(C)C)C(=O)NC(C)(C)C(=O)NC(C)(C)C(=O)NCCC(=O)NCCN)co1` (stereo in doubt) [Compound 7192, (2S)-N-(1-{[(1S)-1-{[(1S)-1-[(1-{[1-({2-[(2-aminoethyl)carbamoyl]ethyl}carbamoyl)-1-methylethyl]carbamoyl}-1-methylethyl)carbamoyl]-3-methylbutyl]carbamoyl}-3-methylbutyl]carbamoyl}-1-methylethyl)-2-[(2S)-4-cyclohexyl-2-{[(2S)-1-(2-methyl-1,3-oxazole-4-carbonyl)pyrrolidin-2-yl]formamido}butanamido]-4-methylpentanamide], the figures for the “MIC” value in data set [1] and in data set [2] were 8 µg/mL (≈ 7.28 µM) and 16 µg/mL (≈ 14.6 µM), respectively.

For the compound `Cc1nc(C(=O)N2CCC[C@H]2C(=O)N[C@@H](CCC2CCCCC2)C(=O)N[C@@H](CC(C)C)C(=O)NC(C)(C)C(=O)N[C@@H](CC(C)C)C(=O)N[C@@H](CC(C)C)C(=O)NC(C)(C)C(=O)NC(C)(C)C(=O)NCCC(=O)NC2(CN3CCCCC3)CCC2)co1` [Compound 6483, (2S)-2-[(2S)-4-cyclohexyl-2-{[(2S)-1-(2-methyl-1,3-oxazole-4-carbonyl)pyrrolidin-2-yl]formamido}butanamido]-4-methyl-N-(1-methyl-1-{[(1S)-3-methyl-1-{[(1S)-3-methyl-1-({1-methyl-1-[(1-methyl-1-{[2-({1-[(piperidin-1-yl)methyl]cyclobutyl}carbamoyl)ethyl]carbamoyl}ethyl)carbamoyl]ethyl}carbamoyl)butyl]carbamyl}butyl]carbamoyl}ethyl)pentanamide] ({Oxazole4CO(2-Me)}-P[hCha]L[Aib]LL[Aib][Aib][βAla]-X2), it took 486 nM to reach half-maximal inhibition in data set [3] (IC50 at 68 h). For the same compound, in data set [4], the IC50 stood at 4.1 nM. In addition, the “MIC” value in data set [1] and in data set [2] was 8 µg/mL (≈ 6.62 µM) throughout.

As for `Cc1nc(C(=O)N2CCC[C@H]2C(=O)N[C@@H](Cc2c[nH]c3ccccc23)C(=O)N[C@@H](CC(C)C)C(=O)NC(C)(C)C(=O)N[C@@H](CC(C)C)C(=O)N[C@@H](CC(C)C)C(=O)NC(C)(C)C(=O)NC(C)(C)C(=O)NCCC(=O)NC2(CN(C)C)CCC2)co1` [Compound 6779, (2S)-N-(1-{[(1S)-1-{[(1S)-1-({1-[(1-{[2-({1-[(dimethylamino)methyl]cyclobutyl}carbamoyl)ethyl]carbamoyl}-1-methylethyl)carbamoyl]-1-methylethyl}carbamoyl)-3-methylbutyl]carbamoyl}-3-methylbutyl]carbamoyl}-1-methylethyl)-2-[(2S)-3-(1H-indol-3-yl)-2-{[(2S)-1-(2-methyl-1,3-oxazole-4-carbonyl)pyrrolidin-2-yl]formamido}propanamido]-4-methylpentanamide] (HELM PEPTIDE1{[Cc1nc(C(=O)[*:2])co1].P.W.L.[Aib].L.L.[Aib].[Aib].[bAla].[CN(C)CC1(N[*:1])CCC1]}$$$$V2.0), the IC50 at 68 h in data set [3] was 6680 nM. Moreover, the IC50 stood at 27 nM in data set [4] and 203 nM in data set [5]. In addition, the “MIC” value in data set [1] came out at 8 µg/mL (≈ 6.74 µM).

Consider `COCCN(CCNC(=O)CCNC(=O)C(C)(C)NC(=O)C(C)(C)NC(=O)[C@H](CC(C)C)NC(=O)[C@H](CC(C)C)NC(=O)C(C)(C)NC(=O)[C@H](CC(C)C)NC(=O)[C@H](CCC1CCCCC1)NC(=O)[C@@H]1CCCN1C(=O)c1coc(C)n1)CCOC` [Compound 6791, (2S)-N-(1-{[(1S)-1-{[(1S)-1-({1-[(1-{[2-({2-[bis(2-methoxyethyl)amino]ethyl}carbamoyl)ethyl]carbamoyl}-1-methylethyl)carbamoyl]-1-methylethyl}carbamoyl)-3-methylbutyl]carbamoyl}-3-methylbutyl]carbamoyl}-1-methylethyl)-2-[(2S)-4-cyclohexyl-2-{[(2S)-1-(2-methyl-1,3-oxazole-4-carbonyl)pyrrolidin-2-yl]formamido}butanamido]-4-methylpentanamide] ({Oxazole4CO(2-Me)}-P[hCha]L[Aib]LL[Aib][Aib][βAla]-X1), for which the IC50 at 68 h in data set [3] was 8230 nM. The IC50 in data set [4] came to 2.1 nM; in data set [5], 179 nM. For the same compound, in data set [2], the “MIC” value stood at 32 µg/mL (≈ 26.3 µM).

As to `CCCCCCCC[C@H](NC(=O)[C@@H]1CCCN1C(=O)c1coc(C)n1)C(=O)N[C@@H](CC(C)C)C(=O)NC(C)(C)C(=O)N[C@@H](CC(C)C)C(=O)N[C@@H](CC(C)C)C(=O)NC(C)(C)C(=O)NC(C)(C)C(=O)NCCC(=O)NCCNC` [Compound 7058, (2S)-2-{[(2S)-1-(2-methyl-1,3-oxazole-4-carbonyl)pyrrolidin-2-yl]formamido}-N-[(1S)-3-methyl-1-[(1-methyl-1-{[(1S)-3-methyl-1-{[(1S)-3-methyl-1-{[1-methyl-1-({1-methyl-1-[(2-{[2-(methylamino)ethyl]carbamoyl}ethyl)carbamoyl]ethyl}carbamoyl)ethyl]carbamoyl}butyl]carbamoyl}butyl]carbamoyl}ethyl)carbamoyl]butyl]decanamide] ({Oxazole4CO(2-Me)}-P[Gly(octyl)]L[Aib]LL[Aib][Aib][βAla]-NHCH2CH2NHMe), the half-maximal inhibitory concentration (IC50) at 68 h in data set [3] was 5040 nM. In addition, the IC50 worked out at 23.8 nM in data set [4] and 2620 nM in data set [5]. Besides, the “MIC” value in data set [2] amounted to 4 µg/mL (≈ 3.59 µM).

Take `CC(C)C[C@H](NC(=O)[C@H](Cc1nccs1)NC(=O)[C@@H]1CCCN1C(=O)c1ccc(F)cc1)C(=O)NC(C)(C)C(=O)N[C@@H](CC(C)C)C(=O)N[C@@H](CC(C)C)C(=O)NC(C)(C)C(=O)NC(C)(C)C(=O)NCCC(=O)NC1(CN(C)C)CCC1` [Compound 7842, (2S)-N-(1-{[(1S)-1-{[(1S)-1-({1-[(1-{[2-({1-[(dimethylamino)methyl]cyclobutyl}carbamoyl)ethyl]carbamoyl}-1-methylethyl)carbamoyl]-1-methylethyl}carbamoyl)-3-methylbutyl]carbamoyl}-3-methylbutyl]carbamoyl}-1-methylethyl)-2-[(2S)-2-{[(2S)-1-(4-fluorobenzoyl)pyrrolidin-2-yl]formamido}-3-(1,3-thiazol-2-yl)propanamido]-4-methylpentanamide] ({Benzoyl(4-F)}-P[Ala(thiazol-2-yl)]L[Aib]LL[Aib][Aib][βAla]-{NH(1-CH2NMe2-cBu)}): the “MIC” value in data set [1] was found to be 32 µg/mL (≈ 27.4 µM).

As to `COc1ccc(C[C@H](NC(=O)[C@@H]2CCCN2C(=O)c2ccc(F)cc2)C(=O)N[C@@H](CC(C)C)C(=O)NC(C)(C)C(=O)N[C@@H](CC(C)C)C(=O)N[C@@H](CC(C)C)C(=O)NC(C)(C)C(=O)NC(C)(C)C(=O)NCCC(=O)NC2(CN(C)C)CCC2)cc1Cl` [Compound 7846, (2S)-2-[(2S)-3-(3-chloro-4-methoxyphenyl)-2-{[(2S)-1-(4-fluorobenzoyl)pyrrolidin-2-yl]formamido}propanamido]-N-(1-{[(1S)-1-{[(1S)-1-({1-[(1-{[2-({1-[(dimethylamino)methyl]cyclobutyl}carbamoyl)ethyl]carbamoyl}-1-methylethyl)carbamoyl]-1-methylethyl}carbamoyl)-3-methylbutyl]carbamoyl}-3-methylbutyl]carbamoyl}-1-methylethyl)-4-methylpentanamide] ({Benzoyl(4-F)}-P[X14]L[Aib]LL[Aib][Aib][βAla]-{NH(1-CH2NMe2-cBu)}), the “MIC” value in data set [1] worked out at 4 µg/mL (≈ 3.27 µM).

Take `CC(C)C[C@H](NC(=O)[C@H](Cc1nc2ccc(F)cc2s1)NC(=O)[C@@H]1CCCN1C(=O)c1ccc(F)cc1)C(=O)NC(C)(C)C(=O)N[C@@H](CC(C)C)C(=O)N[C@@H](CC(C)C)C(=O)NC(C)(C)C(=O)NC(C)(C)C(=O)NCCC(=O)NC1(CN(C)C)CCC1` [Compound 7848, (2S)-N-(1-{[(1S)-1-{[(1S)-1-({1-[(1-{[2-({1-[(dimethylamino)methyl]cyclobutyl}carbamoyl)ethyl]carbamoyl}-1-methylethyl)carbamoyl]-1-methylethyl}carbamoyl)-3-methylbutyl]carbamoyl}-3-methylbutyl]carbamoyl}-1-methylethyl)-2-[(2S)-3-(6-fluoro-1,3-benzothiazol-2-yl)-2-{[(2S)-1-(4-fluorobenzoyl)pyrrolidin-2-yl]formamido}propanamido]-4-methylpentanamide] ({Benzoyl(4-F)}-P[X13]L[Aib]LL[Aib][Aib][βAla]-{NH(1-CH2NMe2-cBu)}): in data set [1], the “MIC” value was 4 µg/mL (≈ 3.24 µM).

Usually IC50 stands for the concentration that gives 50% inhibition.

Values taken from patent US20240174714A1, “TREATMENT OF SKIN DISORDERS” (priority 2021, published 2024).
